In ChEMBL document CHEMBL5050844 (2019):

Columns and labels:
[1] = molecular target: T1, E3 ubiquitin-protein ligase CBL-B (Homo sapiens, UniProt Q13191); assay: Inhibition of N-terminal Avi-tagged human CBL-B (36 to 427 residues) incubated with 60 nM Src kinase for 1.5 hrs followed by incubation with fluorescently labeled UbcH5B-Ub for 1 hr and measured by TR-FRET assay; format: single protein
[2] = molecular target: T1, E3 ubiquitin-protein ligase CBL-B; assay: Binding affinity towards N-terminal biotinylated Avi-tagged human CBL-B (36 to 427 residues) measured by surface plasmon resonance assay
[3] = Induction of anti-CD3/CD28 antibodies-stimulated human T cell activation at 4 uM assessed fold increase in IL-2 secretion measured by ELISA assay; format: functional, T cell line
[4] = Induction of anti-CD3/CD28 antibodies-stimulated human T cell activation at 1 uM assessed fold increase in IL-2 secretion measured by ELISA assay; format: functional, T cell line
[5] = Induction of anti-CD3/CD28 antibodies-stimulated human T cell activation at 0.3 uM assessed fold increase in IL-2 secretion measured by ELISA assay; format: functional, T cell line
[6] = Induction of anti-CD3 antibodies-stimulated human T cell activation at 8 uM assessed fold increase in IL-2 secretion measured by ELISA assay; format: functional, T cell line; also: reference of the scale not given here
[7] = Induction of anti-CD3 antibodies-stimulated human T cell activation at 1 uM assessed fold increase in IL-2 secretion measured by ELISA assay; format: functional, T cell line; also: reference of the scale not given here
[8] = Induction of anti-CD3/CD28 antibodies-stimulated human T cell activation at 4 uM assessed fold increase in CD25 expression measured by ELISA assay; format: functional, T cell line
[9] = Induction of anti-CD3/CD28 antibodies-stimulated human T cell activation at 1 uM assessed fold increase in CD25 expression measured by ELISA assay; format: functional, T cell line
[10] = Induction of anti-CD3/CD28 antibodies-stimulated human T cell activation at 0.3 uM assessed fold increase in CD25 expression measured by ELISA assay; format: functional, T cell line
[11] = Induction of anti-CD3 antibodies-stimulated human T cell activation at 8 uM assessed fold increase in CD25 expression measured by ELISA assay; format: functional, T cell line; also: reference of the scale not given here
[12] = Induction of anti-CD3 antibodies-stimulated human T cell activation at 1 uM assessed fold increase in CD25 expression measured by ELISA assay; format: functional, T cell line; also: reference of the scale not given here

T1 sequence (Q13191 whole entry, the tested form may be a part): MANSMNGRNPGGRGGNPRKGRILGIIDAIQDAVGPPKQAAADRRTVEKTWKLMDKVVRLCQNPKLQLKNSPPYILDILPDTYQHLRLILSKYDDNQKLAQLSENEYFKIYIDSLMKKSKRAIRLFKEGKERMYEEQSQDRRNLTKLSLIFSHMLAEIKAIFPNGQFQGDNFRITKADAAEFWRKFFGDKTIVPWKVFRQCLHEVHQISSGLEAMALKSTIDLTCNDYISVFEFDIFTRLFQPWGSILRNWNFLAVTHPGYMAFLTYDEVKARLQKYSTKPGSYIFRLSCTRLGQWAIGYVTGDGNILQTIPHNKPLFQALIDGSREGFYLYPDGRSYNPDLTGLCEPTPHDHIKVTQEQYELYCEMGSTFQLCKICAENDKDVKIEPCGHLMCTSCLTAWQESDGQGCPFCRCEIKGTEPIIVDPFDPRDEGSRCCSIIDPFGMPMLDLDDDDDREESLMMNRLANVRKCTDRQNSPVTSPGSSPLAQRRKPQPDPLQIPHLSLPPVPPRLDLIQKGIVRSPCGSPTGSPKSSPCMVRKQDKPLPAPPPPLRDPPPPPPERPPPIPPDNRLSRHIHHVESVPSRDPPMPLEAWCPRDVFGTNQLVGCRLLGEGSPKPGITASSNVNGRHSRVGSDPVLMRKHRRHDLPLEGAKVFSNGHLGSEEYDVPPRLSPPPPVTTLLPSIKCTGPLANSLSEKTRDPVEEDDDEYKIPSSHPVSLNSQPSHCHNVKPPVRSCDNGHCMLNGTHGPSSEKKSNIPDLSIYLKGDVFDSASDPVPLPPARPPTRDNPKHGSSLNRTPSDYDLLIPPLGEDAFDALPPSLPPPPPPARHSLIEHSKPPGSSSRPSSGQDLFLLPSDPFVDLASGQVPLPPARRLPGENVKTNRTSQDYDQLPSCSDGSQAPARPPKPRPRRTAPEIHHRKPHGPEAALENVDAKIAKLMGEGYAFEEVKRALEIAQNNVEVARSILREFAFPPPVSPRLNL

Row | IC50 [1] [nM] | Kd [2] [nM] | SMILES | fold change (FC) [3] | fold change (FC) [4] | fold change (FC) [5] | fold change (FC) [6] | fold change (FC) [7] | fold change (FC) [8] | fold change (FC) [9] | fold change (FC) [10] | fold change (FC) [11] | fold change (FC) [12]
1 | < 100 | < 100 | C[C@H](Cc1nncn1C)c1cccc(N2Cc3c(cc(N(C)[C@H]4CCNC4)cc3C(F)(F)F)C2=O)c1 | >=7.5 | 2.51 | 2.51 | >=0.201 | 0.151 | 1.51 | 1.31 | 1.31 | >=1.001 | 0.801
2 | < 100 | < 100 | C[C@H](Cc1nncn1C)c1cccc(N2Cc3c(cc(CN4CCC(F)(F)C4)cc3C(F)(F)F)C2=O)c1 | >=7.5 | 5 | 2.51 | >=0.201 | 0.151 | 1.31 | 1.01 | 1.01 | >=1.001 | >=1.001
3 | < 100 | < 100 | CCNc1cc([C@H](C)Cc2nncn2C)cc(N2Cc3c(cccc3C(F)(F)F)C2=O)n1 | >=7.5 | >=7.5 | 2.51 | >=0.201 | >=0.201 | 1.51 | 1.51 | 1.31 | >=1.001 | >=1.001
4 | < 100 | < 100 | C[C@H](Cc1nncn1C)c1cccc(N2Cc3c(cc(CN4CC(F)C4)cc3C(F)(F)F)C2=O)c1 | >=7.5 | >=7.5 | 2.51 | >=0.201 | 0.151 | 1.31 | 1.01 | 1.01 | >=1.001 | >=1.001
5 | < 100 | < 100 | C[C@H](Cc1nncn1C)c1cccc(N2Cc3c(cc(CN4C[C@@H](O)[C@H](F)C4)cc3C(F)(F)F)C2=O)c1 | >=7.5 | >=7.5 | 2.51 | >=0.201 | >=0.201 | 1.31 | 1.31 | 1.01 | >=1.001 | >=1.001
6 | < 100 | < 100 | C[C@H](Cc1nncn1C)c1cccc(N2Cc3c(cc(CN4C[C@@H](F)[C@@H](O)C4)cc3C(F)(F)F)C2=O)c1 | >=7.5 | 5 | 2.51 | >=0.201 | 0.151 | 1.31 | 1.31 | 1.01 | >=1.001 | >=1.001
7 | < 100 | < 100 | C[C@H](Cc1nncn1C)c1cccc(NC(=O)c2ccc(CO)c(C3CC3)n2)c1 | >=7.5 | >=7.5 | >=7.5 | >=0.201 | >=0.201 | 1.51 | 1.51 | 1.31 | >=1.001 | >=1.001
8 | < 100 | < 100 | C[C@H](Cc1nncn1C)c1cccc(N2Cc3c(cc(-n4cccn4)cc3C(F)(F)F)C2=O)c1 | >=7.5 | >=7.5 | 2.51 | >=0.201 | >=0.201 | 1.51 | 1.51 | 1.31 | >=1.001 | >=1.001
9 | < 100 | < 100 | C[C@H](Cc1nncn1C)c1cccc(N2Cc3c(cc([C@@H](C)N4CC[C@H](F)C4)cc3C(F)(F)F)C2=O)c1 | >=7.5 | >=7.5 | 5 | >=0.201 | 0.151 | 1.31 | 1.01 | 1.01 | >=1.001 | >=1.001
